Data from patent US8318447B2, “Use of bitter taste receptor to screen for compounds that offset the bitter taste of chlorogenic lactone containing coffee compositions” (Senomyx Inc., priority 2005, dated 2012).

What was measured:
Format in all cases: cell-based
[1] = target: T1, hT2R8 (Homo sapiens, UniProt Q9NYW2); test: calcium imaging of HEK293 cells transfected with hT2R8 and chimeric G protein G16gust44; details: for response of HEK-293 cells that express hT2R8: 2 mM concentrations, FIG. 3; for response of hT2R8 (increase in intracellular calcium concentration): different concentrations, FIG. 2 / FIG. 4
T1 construct: expressed in transfected cells; host or cells: human embryonic kidney (HEK293) cells, transient transfection
T1 sequence (Q9NYW2 1-309): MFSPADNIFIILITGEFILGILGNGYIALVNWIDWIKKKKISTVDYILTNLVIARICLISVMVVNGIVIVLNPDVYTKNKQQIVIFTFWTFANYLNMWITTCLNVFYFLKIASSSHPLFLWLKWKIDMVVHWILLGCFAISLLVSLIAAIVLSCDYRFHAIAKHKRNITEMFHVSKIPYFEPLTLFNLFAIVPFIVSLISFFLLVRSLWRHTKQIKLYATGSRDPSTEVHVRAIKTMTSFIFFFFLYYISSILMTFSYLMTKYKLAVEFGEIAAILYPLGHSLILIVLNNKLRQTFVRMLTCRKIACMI
Experimental: (§1) More particularly, the present inventors transfected HEK293 cells with a particular hT2R together with a chimeric G protein (G 16gust44) which comprises the Gα16 G protein sequence modified by the replacement of carboxy-44 amino acid residues with those of gustducin, and recorded responses of these cells to specific bitter ligands by calcium imaging methods.
(§2) Activation of these receptors by 3CoQAL is measured in a cell-based assay detecting changes in intracellular calcium concentration. In brief, human embryonic kidney cells are seeded in 48-well tissue culture plates. 24 hours later, the cells are transiently transfected with plasmid containing either the hT2R8, hT2R14 or hT2R54 nucleic acid sequence, and plasmid containing a chimeric G protein (G16gust44). Another 24 hours later, the cells are incubated with a fluorescent dye specific for calcium (Fluo-4 or Fura-2; Molecular Probes) that provides a fast, simple and reliable fluorescence-based method for detecting changes in calcium concentration inside the cell. Activation of the T2Rs elicits a signaling cascade leading to the activation of PLC and a subsequent increase in intracellular calcium concentration. This increase in calcium concentration changes the fluorescence properties of the calcium dye inside the cells. These changes are monitored using fluorescence microscopy and a specific design software (Imaging Workbench, Axon).
as §2, with “this receptor” for “these receptors”, “3CQAL and 4CQAL” for “3CoQAL”
as §2, with “this receptor” for “these receptors”, “4FQAL” for “3CoQAL”, “brief” for “brief,”

[2] = target: T2, hT2R14 (Homo sapiens, UniProt Q9NYV8); test: calcium imaging of HEK293 cells transfected with hT2R14 and chimeric G protein G16gust44; details: for response of HEK-293 cells that express hT2R14: 2 mM concentrations, FIG. 3; for response of hT2R14 (increase in intracellular calcium concentration): different concentrations, FIG. 2
T2 construct: expressed in transfected cells; host or cells: human embryonic kidney (HEK293) cells, transient transfection
T2 sequence (Q9NYV8 1-317): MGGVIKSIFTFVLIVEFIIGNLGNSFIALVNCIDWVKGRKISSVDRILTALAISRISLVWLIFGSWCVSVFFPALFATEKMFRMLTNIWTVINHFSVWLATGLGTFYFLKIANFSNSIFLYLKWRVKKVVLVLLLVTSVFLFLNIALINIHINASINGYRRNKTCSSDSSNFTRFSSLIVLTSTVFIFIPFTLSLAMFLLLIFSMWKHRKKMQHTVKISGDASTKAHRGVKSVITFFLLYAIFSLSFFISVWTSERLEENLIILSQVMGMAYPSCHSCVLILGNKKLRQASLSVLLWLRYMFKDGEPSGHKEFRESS
Experimental: as §1, §2
as §2, with “this receptor” for “these receptors”, “3CQAL and 4CQAL” for “3CoQAL”
as §2, with “this receptor” for “these receptors”, “4FQAL” for “3CoQAL”, “brief” for “brief,”

[3] = target: T3, hT2R54 (Homo sapiens, UniProt P59534); test: calcium imaging of HEK293 cells transfected with hT2R54 and chimeric G protein G16gust44; details: for response of HEK-293 cells that express hT2R54: 2 mM concentrations, FIG. 3; for response of hT2R54 (increase in intracellular calcium concentration): different concentrations, FIG. 2 / FIG. 4
T3 construct: expressed in transfected cells; host or cells: human embryonic kidney (HEK293) cells, transient transfection
T3 sequence (P59534 18-338): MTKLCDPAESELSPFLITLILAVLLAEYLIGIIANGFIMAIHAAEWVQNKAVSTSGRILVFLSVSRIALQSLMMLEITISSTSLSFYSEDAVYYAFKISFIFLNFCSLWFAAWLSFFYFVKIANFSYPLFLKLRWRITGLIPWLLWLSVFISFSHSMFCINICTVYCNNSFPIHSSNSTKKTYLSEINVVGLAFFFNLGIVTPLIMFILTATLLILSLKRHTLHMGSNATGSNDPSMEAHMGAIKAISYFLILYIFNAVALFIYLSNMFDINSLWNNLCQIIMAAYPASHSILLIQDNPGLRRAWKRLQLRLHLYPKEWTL
Experimental: as §1, §2
as §2, with “this receptor” for “these receptors”, “3CQAL and 4CQAL” for “3CoQAL”
as §2, with “this receptor” for “these receptors”, “4FQAL” for “3CoQAL”, “brief” for “brief,”

Compound: O=C(/C=C/c1ccc(O)c(O)c1)O[C@@H]1C[C@]2(O)C[C@@H](OC2=O)[C@@H]1O [3CQAL]
- response of HEK-293 cells that express hT2R8 [1]: specifically respond
- response of HEK-293 cells that express hT2R14 [2]: specifically respond
- response of HEK-293 cells that express hT2R54 [3]: specifically respond

Compound: COc1cc(/C=C/C(=O)O[C@@H]2[C@H](O)C[C@]3(O)C[C@H]2OC3=O)ccc1O [4FQAL]
- response of hT2R8 (increase in intracellular calcium concentration) [1]: responded specifically
- response of hT2R14 (increase in intracellular calcium concentration) [2]: specifically activate
- response of hT2R54 (increase in intracellular calcium concentration) [3]: responded specifically

Compound: O=C(C=Cc1ccc(O)cc1)OC1CC2(O)CC(OC2=O)C1O (stereo not drawn) [3CoQAL]
- response of hT2R8 (increase in intracellular calcium concentration) [1]: responded
- response of hT2R14 (increase in intracellular calcium concentration) [2]: responded
- response of hT2R54 (increase in intracellular calcium concentration) [3]: responded

Compound: O=C(C=Cc1ccc(O)c(O)c1)OC1C(O)CC2(O)CC1OC2=O (stereo not drawn) [4CQAL]
- response of HEK-293 cells that express hT2R8 [1]: specifically respond
- response of HEK-293 cells that express hT2R14 [2]: specifically respond
- response of HEK-293 cells that express hT2R54 [3]: specifically respond

Compound: OC[C@H]1O[C@@](CO)(O[C@H]2O[C@H](CO)[C@@H](O)[C@H](O)[C@H]2O)[C@@H](O)[C@@H]1O [sucrose]
- response of HEK-293 cells that express hT2R8 [1]: do not respond
- response of hT2R8 (increase in intracellular calcium concentration) [1]: do not respond
- response of HEK-293 cells that express hT2R14 [2]: do not respond
- response of hT2R14 (increase in intracellular calcium concentration) [2]: do not respond
- response of HEK-293 cells that express hT2R54 [3]: do not respond
- response of hT2R54 (increase in intracellular calcium concentration) [3]: do not respond
